# Laboratory results taken from ChEMBL document CHEMBL1141270, “Withanolides from Jaborosa kurtzii” (2007).
# How the values were obtained:
# [1] = system: Lactuca sativa; experiment: Phytotoxicity against Lactuca sativa assessed as inhibition in radicle length at 400 ppm; format: functional
# [2] = system: Avena sativa; experiment: Phytotoxicity against Avena sativa assessed as inhibition of radicle length at 400 ppm; format: functional
smiles,measurement,setting,value
CC1=C(C)C(=O)O[C@]2(C1)O[C@@]1(O)CC3C(CC=C4CC=CC(=O)[C@@]43C)C3CC[C@@](O)([C@@H]2C)[C@]31C (some centres not stated) [JABOROSALACTONE 43],inhibition at 400 ppm,[1],32%
same,inhibition at 400 ppm,[2],4%
